Consider 14 molecules from US6194451A, “Matrix metalloproteinase inhibitors” (Pharmacia & Upjohn S.p.A., priority 1997, dated 2001).

In brackets after ≈: the same amount, converted by molar mass.

Data set [1] concerns the target T1, MMP-3 (human stromelysin-1) (Homo sapiens, UniProt P08254).
T1 construct: host or cells: E. coli or baculovirus-infected Sf9 insect cells
Kind of data set: Biochemical Assay (Protocol A): inhibition of human stromelysin-1, fluorimetric peptide substrate. As to conditions: MMP-3, pH 7.4, 37° C. From the text: (§1) As mentioned above, although low molecular weight MMP inhibitors, including hydroxamates of general formula (A), are already known, there is a strong need for better and diversified molecules for their use in medicine, that is in particular in the control or prevention of degenerative joint diseases such as rheumatoid arthritis and osteoarthritis, or in the management of multiple sclerosis, or in the treatment of invasive tumors. […] For example, the following protocol was used to assess the biochemical activity of compounds of formula (I) against MMP-1, MMP-2, and MMP-3 (respectively, human interstitial collagenase, gelatinase A, and stromelysin-1).
(§2) Human gelatinase-A (MMP-2) was obtained as pro-enzyme (72 kDa) and was activated with 1 mM 4-aminophenylmercuric acetate for 30 min at 37° C. immediately prior to use. Human stromelysin-1 (MMP-3) was obtained as a recombinant pro-enzyme isolated either from E. coli or from baculovirus infected Sf9 insect cells and activated either by heat (1 h, 55° C.) or by 5 mg/l trypsin (30 min, 37° C.) before addition of soybean trypsin inhibitor, finally removed by centrifugation.
(§3) All enzyme assays to determine values of the enzyme-inhibitor dissociation constants were performed using the peptide substrate (7-methoxycoumarin-4-yl)Acetyl-Pro-Leu-Gly-Leu-(3-[2,4-dinitrophenyl]-L-2,3-diaminopropionyl)-Ala-Arg-NH2 (Mca-Pro-Leu-Gly-Leu-Dpa-Ala-Arg--NH2) (C. G. Knight et al., FEBS Lett. 296:263-266, 1992). The enzymes cleave at the Gly-Leu bond removing the internally quenching Dpa group. The release of the highly fluorescent peptide Mca-Pro-Leu was followed fluorimetrically setting the excitation wavelength at 326 nm (bandwidth 5 nm) and the emission at 392 nm (bandwidth 20 nm).
(§4) Continuous fluorescence assay was carried out using a Perkin Elmer LS-50 Fluorescence Spectrophotometer fitted with a thermostatted four position stirring cell changer. Inhibitors were dissolved in the assay buffer ([…] Tris/HCl pH 7.4 containing 0.15 M NaCl, 10 mM CaCl2, 0.01 mM ZnCl2 and 0.05% Brij 35) thermostatted at 37° C. The reaction was started by the addition of substrate ([…]), followed by the addition of the enzyme (e.g. 1.0 nM collagenase, 0.04 nM gelatinase, or 3.0 nM stromelysin) and the increase in fluorescence was monitored over 30 min. The run was repeated at different concentrations of inhibitors in the range 0.1-10000 nM and data at inhibitor concentration in the region if their enzyme-inhibitor dissociation constants were used for calculation.
(§5) Substrate consumption was within 5% of the initial concentration and data outside this range were discarded. The Michaelis constants (Km) for the enzyme-substrate complexes is […] or greater (C. G. Knight et al., reference above), so that the factor (1+S/Km) can be approximated to unity without appreciable error.

In data set [2] the target is T2, MMP-2 (human gelatinase A) (Homo sapiens, UniProt P08253).
T2 sequence (P08253 110-660): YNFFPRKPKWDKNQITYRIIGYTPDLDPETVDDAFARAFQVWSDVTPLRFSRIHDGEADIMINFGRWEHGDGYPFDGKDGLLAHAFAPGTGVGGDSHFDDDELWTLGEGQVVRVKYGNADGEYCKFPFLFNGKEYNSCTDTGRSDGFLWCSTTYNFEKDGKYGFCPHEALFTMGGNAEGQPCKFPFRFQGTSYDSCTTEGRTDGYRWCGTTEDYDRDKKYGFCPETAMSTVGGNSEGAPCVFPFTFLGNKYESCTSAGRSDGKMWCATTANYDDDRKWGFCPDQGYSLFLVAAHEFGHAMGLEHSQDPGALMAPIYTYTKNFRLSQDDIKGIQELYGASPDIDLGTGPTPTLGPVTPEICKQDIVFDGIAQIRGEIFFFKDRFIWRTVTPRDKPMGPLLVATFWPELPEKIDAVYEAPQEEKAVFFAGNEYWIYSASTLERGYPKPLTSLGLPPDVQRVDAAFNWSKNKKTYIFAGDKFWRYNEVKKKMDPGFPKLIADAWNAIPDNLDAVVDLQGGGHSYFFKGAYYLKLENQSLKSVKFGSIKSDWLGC
The data set is described as follows: Biochemical Assay (Protocol A): inhibition of human gelatinase A, fluorimetric peptide substrate. As to conditions: MMP-2, pH 7.4, 37° C.
From the text: as §1, §2, §3, §4, §5

Data set [3] addresses T3, MMP-1 (human interstitial collagenase) (Homo sapiens, UniProt P03956).
T3 construct: truncated recombinant enzyme encompassing residues 101-269
T3 sequence (P03956 101-269): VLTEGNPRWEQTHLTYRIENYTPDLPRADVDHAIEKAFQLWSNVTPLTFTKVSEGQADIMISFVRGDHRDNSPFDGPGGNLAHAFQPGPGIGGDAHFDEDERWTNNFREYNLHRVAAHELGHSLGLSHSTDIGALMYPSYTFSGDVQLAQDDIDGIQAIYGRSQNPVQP
Kind of data set: Biochemical Assay (Protocol A): inhibition of human collagenase, fluorimetric peptide substrate. As to conditions: MMP-1, pH 7.4, 37° C.
From the text: as §1, §2, §3, §4, §5

The nature of data set [4]: Aqueous solubility. Format: physicochemical. As to conditions: water, pH 7.0, 25° C. The procedure: Further, several compounds of formula (I), in particular when R2 is hydroxy, and when R1 is hydroxymethyl, have enhanced water solubility as compared to the vast majority of MMP inhibitors of the prior art. An aqueous solubility threshold, which may vary widely but can be roughly set in the range of 1-10 mg/mL, makes systemic administration easy, and more than often is essential to good oral bioavailability.

Data set [5] has as its system release of TNF from THP-1 cells. Kind of data set: Cellular Assay (Protocol B): inhibition of release of TNF from LPS-stimulated THP-1 cells. Format: cell-based. As to conditions: Homo sapiens, LPS 5 microg/mL, 4 h. The procedure:
For example, the following cell-based assay was used to assess such activity:
THP-1 cells, cultured in RPMI 1640 supplemented with 10% FCS, were distributed into 24-well plates, 1 mL of a suspension of 1×10^6 cells/mL in each well. Compounds to be tested, dissolved in DMSO and diluted with the culture medium (1% final DMSO concentration) were added. Plates were incubated for 30 min at 37° C. in 5% CO2, and lipopolisaccharide (LPS 0111:B4, 5 microg/mL) was added as a stimulant. After a further 4 h incubation, cells were harvested, centrifuged (2,000 rpm, 7 min), and the surnatant was collected and freezed (-20° C.) until analysis. Analysis was run by classical ELISA methodology (monoclonal anti-TNF-a antibody, rabbit capture policlonal antibody, and peroxidated anti-rabbit antibody).

T1 sequence (P08254 100-477): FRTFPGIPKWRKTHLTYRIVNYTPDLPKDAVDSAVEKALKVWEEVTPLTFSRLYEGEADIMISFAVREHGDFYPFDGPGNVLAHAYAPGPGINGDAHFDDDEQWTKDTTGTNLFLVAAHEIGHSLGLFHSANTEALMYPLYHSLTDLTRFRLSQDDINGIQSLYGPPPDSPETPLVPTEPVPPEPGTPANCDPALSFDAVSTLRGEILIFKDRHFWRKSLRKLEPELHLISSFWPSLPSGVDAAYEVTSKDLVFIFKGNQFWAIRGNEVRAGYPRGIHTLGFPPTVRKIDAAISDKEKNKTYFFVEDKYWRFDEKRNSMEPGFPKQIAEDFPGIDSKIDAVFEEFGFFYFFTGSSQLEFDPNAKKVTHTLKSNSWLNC

In the case of `CNC(=O)[C@@H](NC(=O)[C@H](CC(C)C)[C@@](COC1CCCCO1)(OC1CCCCO1)C(=O)NO)C(C)(C)C` (stereo partly drawn) [Example 8, [(2R,3S)-4-Hydroxyamino-2-isobutyl-3-(2-tetrahydropyranyl)oxy-3-(2-tetrahydropyranyl)oxymethylsuccinyl]-L-tert-leucine-N-methylamide], the Ki is 1100 nM in data set [1], 40 nM in data set [2] and 45 nM in data set [3]. This molecule also displayed a solubility in data set [4] of 10000 µg/mL (≈ 18.9 mM).
On to `CNC(=O)[C@H](Cc1ccccc1)NC(=O)[C@H](CC(C)C)[C@@](O)(COC1CCCCO1)C(=O)NO` (stereo partly drawn) [Example 6, [(2R,3R)-3-Hydroxy-4-hydroxyamino-2-isobutyl-3-(tetrahydro-pyran-2-yloxymethyl)succinyl]-L-phenylalanine-N-methylamide], for which the Ki in data set [1] is 430 nM; in data set [2], 23 nM; in data set [3] it was 67 nM. The molecule further returned an IC50 in data set [5] of 65400 nM.
In the case of `CNC(=O)[C@H](Cc1ccccc1)NC(=O)[C@H](CC(C)C)[C@](O)(COC1CCCCO1)C(=O)NO` (stereo partly drawn) [Example 5, [(2R,3S)-3-Hydroxy-4-hydroxyamino-2-isobutyl-3-(tetrahydro-pyran-2-yloxymethyl)succinyl]-L-phenylalanine-N-methylamide], the Ki is 15 nM in data set [1], 0.62 nM in data set [2] and 2.7 nM in data set [3]. The midpoint of inhibition in data set [5], the IC50, lay at 1490 nM.
Turning to `CC(C)C[C@@H](C(=O)N1CCOCC1)[C@](O)(COC(=O)c1ccccc1)C(=O)NO` [Example 22, 1-[(2R,3S)-3-Benzoyoloxymethyl-3-hydroxy-4-hydroxyamino-2-isobutylsuccinyl]morpholine], the concentration in solution in data set [4] (solubility) came to 1900 µg/mL (≈ 4.65 mM).
Turning to `CNC(=O)[C@@H](NC(=O)[C@H](CC(C)C)[C@](O)(COC(C)=O)C(=O)NO)C(C)(C)C` [Example 9, [(2R,3S)-3-Acetoxymethyl-3-hydroxy-4-hydroxyamino-2-isobutyl-succinyl]-L-tert-leucine-N-methylamide], the Ki in data set [1] was 110 nM; in data set [2], 1.7 nM; in data set [3], 2.2 nM. The solubility in data set [4] is more than 9000 µg/mL.
As to `CNC(=O)[C@H](Cc1ccccc1)NC(=O)[C@H](CC(C)C)[C@](O)(CO)C(=O)NO` [Example 7, [(2R,3S)-3-Hydroxy-4-hydroxyamino-3-hydroxymethyl-2-isobutyl-succinyl]-L-phenylalanine-N-methylamide], the inhibition constant Ki in data set [1] amounted to 32 nM; in data set [2] it was 3.1 nM; in data set [3] it was 1.5 nM. Moreover, the solubility in data set [4] is 6000 µg/mL (≈ 15.2 mM). In data set [5] (at 100 microM), this molecule gave an inhibition at 100 µM of 90%.
In the case of `CC(C)C[C@@H](C(=O)N1CCOCC1)[C@](O)(COC(=O)C(C)(C)C)C(=O)NO` [Example 25, 1-[(2R,3S)-3-Hydroxy-4-hydroxyamino-2-isobutyl-3-(trimethyl-acetoxy)methylsuccinyl]morpholine], the solubility in data set [4] is more than 8000 µg/mL.
On the same count and under the same terms, to `CC(=O)OC[C@](O)(C(=O)NO)[C@@H](CC(C)C)C(=O)N1CCCCC1` [Example 23, 1-[(2R,3S)-3-Acetoxymethyl-3-hydroxy-4-hydroxyamino-2-isobutylsuccinyl]piperidine] belongs 5000 µg/mL (≈ 14.5 mM).
On to `CC(=O)OC[C@](O)(C(=O)NO)[C@@H](CC(C)C)C(=O)N[C@H](C(=O)Nc1ccncc1)C(C)(C)C` [Example 11, [(2R,3S)-3-Acetoxymethyl-3-hydroxy-4-hydroxyamino-2-isobutyl-succinyl]-L-tert-leucine-N-(4-pyridyl)amide], for which the inhibition constant Ki in data set [1] stood at 4.9 nM; in data set [2] it was 4.7 nM; in data set [3] it was 7.3 nM. Moreover, in data set [4], the concentration in solution (solubility) came to 3400 µg/mL (≈ 7.29 mM).
Turning to `CNC(=O)[C@H](Cc1ccccc1)NC(=O)[C@H](CC(C)C)C1(C(=O)NO)CC1` [Example 20, [2R-(1-Hydroxyaminocarbonyl)cyclopropyl-4-methylpentanoyl]-L-phenylalanine-N-methylamide], the Ki in data set [1] amounted to 880 nM; in data set [2] it was 19 nM; in data set [3], 25 nM. This molecule also had a solubility in data set [4] of 5800 µg/mL (≈ 15.4 mM).
Consider `CC(C)C[C@@H](C(=O)N[C@H](C(=O)Nc1ccncc1)C(C)(C)C)[C@](O)(CO)C(=O)NO` [Example 12, [(2R,3S)-3-Hydroxy-4-hydroxyamino-3-hydroxymethyl-2-isobutyl-succinyl]-L-tert-leucine-N-(4-pyridyl)amide], for which the Ki came to 10 nM in data set [1], 9.5 nM in data set [2] and 6.8 nM in data set [3]. Also, the solubility in data set [4] was more than 10000 µg/mL.
In the same order, the values of `CNC(=O)[C@@H](NC(=O)[C@H](CC(C)C)[C@](O)(COC(=O)C(C)(C)C)C(=O)NO)C(C)(C)C` [Example 13, [(2R,3S)-3-Hydroxy-4-hydroxyamino-2-isobutyl-3-(tri-methylacetoxy)methyl-succinyl]-L-tert-leucine-N-methylamide] are 71 nM, 6.5 nM, 3.4 nM and 1300 µg/mL (≈ 2.92 mM).
`CNC(=O)[C@@H](NC(=O)[C@H](CC(C)C)[C@](O)(COC1CCCCO1)C(=O)NO)C(C)(C)C` (stereo partly drawn) [Example 2, [(2R,3S)-3-Hydroxy-4-hydroxyamino-2-isobutyl-3-(tetrahydro-pyran-2-yloxymethyl)succinyl]-L-tert-leucine-N-methylamide] registered a half-maximal inhibitory concentration (IC50) in data set [5] of 5200 nM.
For `CC(C)C[C@@H](C(=O)N1CCCCC1)[C@](O)(CO)C(=O)NO` [Example 24, 1-[(2R,3S)-3-Hydroxy-4-hydroxyamino-3-hydroxymethyl-2-isobutyl-succinyl]piperidine], the solubility in data set [4] is more than 6000 µg/mL.
